Results: PMC11862108, “Nitro‐fatty acids‐mediated nitroalkylation modulates fine‐tuning catalase antioxidant function during salinity stress in plants” (Protein Science : A Publication of the Protein Society, 2025)

Tests used:
[1] = target: T1, Arabidopsis recombinant CAT2 protein (Arabidopsis thaliana, UniProt P25819); assay: H2O2 disappearance at […] nm; assay type: biochemical; settings: 30 min preincubation at 25 °C; covalent (nitroalkylation of His); NO2-Ln concentration not given; MeOH vehicle control; regioisomer not defined
T1 construct: commercial recombinant protein (LSBio, Life Span BioSciences); heme enzyme
T1 sequence (P25819 1-492): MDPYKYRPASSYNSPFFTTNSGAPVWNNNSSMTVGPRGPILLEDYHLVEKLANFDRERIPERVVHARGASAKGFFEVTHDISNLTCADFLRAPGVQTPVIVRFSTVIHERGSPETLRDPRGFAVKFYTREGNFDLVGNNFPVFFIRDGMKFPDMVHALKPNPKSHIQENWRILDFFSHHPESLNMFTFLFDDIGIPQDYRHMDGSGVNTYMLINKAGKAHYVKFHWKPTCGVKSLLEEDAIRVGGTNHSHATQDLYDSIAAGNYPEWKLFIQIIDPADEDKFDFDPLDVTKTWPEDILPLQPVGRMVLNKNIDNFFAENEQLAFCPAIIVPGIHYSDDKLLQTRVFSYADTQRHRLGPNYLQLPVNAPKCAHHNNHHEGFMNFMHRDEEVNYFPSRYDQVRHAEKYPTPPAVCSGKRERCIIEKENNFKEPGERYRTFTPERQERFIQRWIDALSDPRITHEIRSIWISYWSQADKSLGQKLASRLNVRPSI

CAT from bovine liver = target: T2, CAT from bovine liver (Bos taurus, UniProt P00432); assay: H2O2 disappearance at […] nm; assay type: biochemical; settings: 30 min preincubation at 25 °C; NO2-Ln concentration not given; MeOH vehicle control; regioisomer not defined
T2 construct: commercial bovine liver catalase (Sigma)
T2 sequence (P00432 2-527): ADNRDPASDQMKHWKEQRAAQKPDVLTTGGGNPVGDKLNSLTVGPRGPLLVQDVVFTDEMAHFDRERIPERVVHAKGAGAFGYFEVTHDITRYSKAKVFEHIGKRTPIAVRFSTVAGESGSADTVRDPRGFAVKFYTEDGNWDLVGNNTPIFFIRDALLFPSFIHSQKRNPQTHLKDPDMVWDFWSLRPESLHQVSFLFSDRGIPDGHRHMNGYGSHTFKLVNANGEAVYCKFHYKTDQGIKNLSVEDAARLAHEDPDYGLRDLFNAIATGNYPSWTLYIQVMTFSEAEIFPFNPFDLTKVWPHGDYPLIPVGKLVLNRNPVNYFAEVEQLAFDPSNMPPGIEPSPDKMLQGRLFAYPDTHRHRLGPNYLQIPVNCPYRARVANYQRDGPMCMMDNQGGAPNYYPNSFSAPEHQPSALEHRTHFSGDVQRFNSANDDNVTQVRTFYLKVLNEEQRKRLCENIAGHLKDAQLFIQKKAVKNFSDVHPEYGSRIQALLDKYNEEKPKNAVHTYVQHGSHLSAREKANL

- % inhibition [1]: 36%
- % inhibition (CAT from bovine liver): 60%
Substance: NO2-Ln
